Experimental data taken from US5684032A, “Compounds” (SmithKline Beecham Corporation, priority 1995, dated 1997).

Assays:
[1] = system: recombinant human IL-8 type α receptor (IL-8Rα, Type I, non-permissive receptor); test: [125I] IL-8 receptor binding assay, IL-8Rα (Type I, non-permissive) CHO membranes; conditions: IL-8Rα (type I) receptor binding assay
Excerpt: (§1) [^125 I] IL-8 (human recombinant) was obtained from Amersham Corp., Arlington Heights, Ill., with specific activity 2000 Ci/mmol. All other chemicals were of analytical grade. High levels of recombinant human IL-8 type α and β receptors were individually expressed in Chinese hamster ovary cells as described previously (Holmes, et al., Science, 1991, 253, 1278). The Chinese hamster ovary membranes were homogenized according to a previously described protocol (Kraft, et al., Nature, 1983, 301, 621). Membrane protein concentration was determined using Pierce Co. micro-assay kit using bovine serum albumin as a standard. All assays were performed in a 96-well micro plate format. Each reaction mixture contained ^125 I IL-8 (0.25 nM), 0.5 μg/mL of IL-8Rα or 1.0 μg/mL of IL-8Rβ membranes in 20 mM Bis-Trispropane and 0.4 mM Tris HCl buffers, pH 8.0, containing 1.2 mM MgSO4, 0.1 mM EDTA, 25 mM NaCl and 0.03% CHAPS plus peptide at relevant concentrations. The assay was initiated by addition of ^125 I-IL-8. After 1 hour at room temperature the plate was harvested using a Tomtec 96-well harvester onto a glass fiber filtermat blocked with 1% polyethyleneimine/0.5% BSA and washed 3 times with 25 mM NaCl, 10 mM TrisHCl, 1 mM MgSO4, 0.5 mM EDTA, 0.03% CHAPS, pH 7.4. The filter was then dried and counted on the Betaplate liquid scintillation counter. […]

[2] = system: recombinant human IL-8 type β receptor (IL-8Rβ, Type II, permissive receptor); test: [125I] IL-8 receptor binding assay, IL-8Rβ (Type II, permissive) CHO membranes; conditions: IL-8Rβ (type II) receptor binding assay
Excerpt: as §1

- inhibition of IL-8 binding, result in words [1]: not active
- inhibition of IL-8 binding, result in words [2]: not active
SMILES: O=C(O)c1c(-c2ccccc2)c2ccccc2n1Cc1ccc(OC(F)(F)F)cc1
